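Step 1: Grow cells in 96-well plates. Step 2: Expose to compound for 48 hours at 5 concentrations. Step 3: Interpolate endpoints linearly; if unreached, use highest concentration. GI50 = concentration required for 50% inhibition of growth.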 The source made the active and inactive calls. No stated cut-off is given here; in the data, active = GI50 up to about 1.1 µM and inactive = higher.
What was measured:
Assay in all cases: DTP human tumour cell line panel, 48 h
COLO 205 = tested on: COLO 205
RXF 393 = tested on: RXF 393
T47D = tested on: T47D
U-251 = tested on: U-251
SNB-19 = tested on: SNB-19
SNB-75 = tested on: SNB-75
HT-29 = tested on: HT-29
SW-620 = tested on: SW-620
BT-549 = tested on: BT-549
SK-MEL-2 = tested on: SK-MEL-2
EKVX = tested on: EKVX
Malme-3M = tested on: Malme-3M
SN12C = tested on: SN12C
MDA-N = tested on: MDA-N
SK-OV-3 = tested on: SK-OV-3
NCI-H23 = tested on: NCI-H23
MOLT-4 = tested on: MOLT-4
K562 = tested on: K562
NCI/ADR-RES = tested on: NCI/ADR-RES
SK-MEL-28 = tested on: SK-MEL-28

SMILES | GI50 (COLO 205) | GI50 (RXF 393) | GI50 (T47D) | GI50 (U-251) | GI50 (SNB-19) | GI50 (SNB-75) | GI50 (HT-29) | GI50 (SW-620) | GI50 (BT-549) | GI50 (SK-MEL-2) | GI50 (EKVX) | GI50 (Malme-3M) | GI50 (SN12C) | GI50 (MDA-N) | GI50 (SK-OV-3) | GI50 (NCI-H23) | GI50 (MOLT-4) | GI50 (K562) | GI50 (NCI/ADR-RES) | GI50 (SK-MEL-28)
CN1C(=O)C(=CNc2ccccc2[N+](=O)[O-])C(=O)N(C)C1=O | > 100 µM (inactive) | > 100 µM (inactive) | > 100 µM (inactive) | > 100 µM (inactive) | > 100 µM (inactive) | > 100 µM (inactive) | > 100 µM (inactive) | > 100 µM (inactive) | > 100 µM (inactive) | > 100 µM (inactive) | > 100 µM (inactive) | > 100 µM (inactive) | > 100 µM (inactive) | > 100 µM (inactive) | > 100 µM (inactive) | > 100 µM (inactive) | > 100 µM (inactive) | > 100 µM (inactive) | > 100 µM (inactive) | –
Cc1ccc(C(=O)/C=C2\Nc3ccccc3NC2=O)cc1 | > 100 µM (inactive) | 2.42 µM (inactive) | 2.65 µM (inactive) | 8.13 µM (inactive) | 10.6 µM (inactive) | – | 20 µM (inactive) | – | 22.2 µM (inactive) | 4.11 µM (inactive) | 2.96 µM (inactive) | 2.48 µM (inactive) | 5.58 µM (inactive) | 32.6 µM (inactive) | 2.19 µM (inactive) | 8.05 µM (inactive) | > 100 µM (inactive) | > 100 µM (inactive) | 5.13 µM (inactive) | 5.3 µM (inactive)
CCCCCCCCCCCCCC(=O)OCC(CCS(=O)(=O)O[C@H]1CC[C@@]2(C)C(=CC[C@@H]3C2CC[C@]2(C)C(=O)CCC32)C1)OC(=O)CCCCCCCCCCCCC (some centres not stated) | > 100 µM (inactive) | > 100 µM (inactive) | > 100 µM (inactive) | > 100 µM (inactive) | > 100 µM (inactive) | > 100 µM (inactive) | > 100 µM (inactive) | > 100 µM (inactive) | > 100 µM (inactive) | > 100 µM (inactive) | > 100 µM (inactive) | > 100 µM (inactive) | > 100 µM (inactive) | > 100 µM (inactive) | > 100 µM (inactive) | > 100 µM (inactive) | – | > 100 µM (inactive) | > 100 µM (inactive) | > 100 µM (inactive)
CC(C)C1CSC2N1C(=O)C2(OCc1ccccc1)C1CC1 (configuration not stated) | > 100 µM (inactive) | > 100 µM (inactive) | 97.5 µM (inactive) | > 100 µM (inactive) | > 100 µM (inactive) | 97.7 µM (inactive) | > 100 µM (inactive) | > 100 µM (inactive) | > 100 µM (inactive) | – | > 100 µM (inactive) | > 100 µM (inactive) | > 100 µM (inactive) | > 100 µM (inactive) | > 100 µM (inactive) | > 100 µM (inactive) | 97.1 µM (inactive) | 67.8 µM (inactive) | 63.4 µM (inactive) | > 100 µM (inactive)
C=CCCCCOC1C=CC(O)C(CO)O1 (configuration not stated) | > 100 µM (inactive) | > 100 µM (inactive) | > 100 µM (inactive) | > 100 µM (inactive) | > 100 µM (inactive) | – | > 100 µM (inactive) | > 100 µM (inactive) | > 100 µM (inactive) | > 100 µM (inactive) | > 100 µM (inactive) | > 100 µM (inactive) | > 100 µM (inactive) | > 100 µM (inactive) | > 100 µM (inactive) | > 100 µM (inactive) | > 100 µM (inactive) | > 100 µM (inactive) | > 100 µM (inactive) | > 100 µM (inactive)
CC/C(Cl)=N\OC(=O)Nc1ccc(F)cc1F | 1.91 µM (inactive) | 12.8 µM (inactive) | 6.28 µM (inactive) | 22.4 µM (inactive) | 25.4 µM (inactive) | 20.6 µM (inactive) | 21.3 µM (inactive) | 1.93 µM (inactive) | 2.38 µM (inactive) | 17.4 µM (inactive) | 8.55 µM (inactive) | 2.9 µM (inactive) | 5.73 µM (inactive) | 5.87 µM (inactive) | 19.3 µM (inactive) | 20 µM (inactive) | 1.55 µM (inactive) | 0.244 µM (active) | 17.8 µM (inactive) | 17.7 µM (inactive)
Cc1ccc(O)c(C2=NNC(c3cccc(Br)c3)C2)c1 (configuration not stated) | > 100 µM (inactive) | 56.4 µM (inactive) | 35.6 µM (inactive) | 43.7 µM (inactive) | 23 µM (inactive) | – | 64.1 µM (inactive) | 67.1 µM (inactive) | > 100 µM (inactive) | > 100 µM (inactive) | 35.9 µM (inactive) | > 100 µM (inactive) | 52.6 µM (inactive) | 28.8 µM (inactive) | 34.3 µM (inactive) | 76.6 µM (inactive) | 32.8 µM (inactive) | 38 µM (inactive) | 48.1 µM (inactive) | –
CC(C)(C)OC(=O)NC1CC=CCC1NC(=O)OC(C)(C)C (configuration not stated) | > 100 µM (inactive) | 95.5 µM (inactive) | > 100 µM (inactive) | > 100 µM (inactive) | > 100 µM (inactive) | > 100 µM (inactive) | > 100 µM (inactive) | > 100 µM (inactive) | > 100 µM (inactive) | > 100 µM (inactive) | – | > 100 µM (inactive) | > 100 µM (inactive) | > 100 µM (inactive) | > 100 µM (inactive) | > 100 µM (inactive) | > 100 µM (inactive) | 97.9 µM (inactive) | > 100 µM (inactive) | > 100 µM (inactive)
CSc1nc2c(c(N(C)C)n1)C=Nn1c(nc3ccccc31)S2 | > 100 µM (inactive) | 29 µM (inactive) | 64.1 µM (inactive) | > 100 µM (inactive) | > 100 µM (inactive) | 64.1 µM (inactive) | > 100 µM (inactive) | > 100 µM (inactive) | 95.9 µM (inactive) | > 100 µM (inactive) | – | 91 µM (inactive) | > 100 µM (inactive) | 95.1 µM (inactive) | > 100 µM (inactive) | > 100 µM (inactive) | > 100 µM (inactive) | > 100 µM (inactive) | > 100 µM (inactive) | > 100 µM (inactive)
CCN(CC)CCC1(C(=O)OC)SCCc2ccc(C)cc21 (configuration not stated) | > 100 µM (inactive) | > 100 µM (inactive) | > 100 µM (inactive) | > 100 µM (inactive) | > 100 µM (inactive) | 63.2 µM (inactive) | – | > 100 µM (inactive) | > 100 µM (inactive) | > 100 µM (inactive) | > 100 µM (inactive) | > 100 µM (inactive) | > 100 µM (inactive) | > 100 µM (inactive) | > 100 µM (inactive) | > 100 µM (inactive) | > 100 µM (inactive) | > 100 µM (inactive) | > 100 µM (inactive) | > 100 µM (inactive)
O=C(c1ccc(Br)cc1)n1c2ccc(Br)cc2c2nc3ccccc3nc21 | > 100 µM (inactive) | > 100 µM (inactive) | > 100 µM (inactive) | > 100 µM (inactive) | > 100 µM (inactive) | 76.7 µM (inactive) | > 100 µM (inactive) | > 100 µM (inactive) | > 100 µM (inactive) | > 100 µM (inactive) | > 100 µM (inactive) | > 100 µM (inactive) | > 100 µM (inactive) | > 100 µM (inactive) | – | > 100 µM (inactive) | 43.9 µM (inactive) | > 100 µM (inactive) | > 100 µM (inactive) | > 100 µM (inactive)
C#CCNCC(=O)O | > 100 µM (inactive) | > 100 µM (inactive) | > 100 µM (inactive) | > 100 µM (inactive) | > 100 µM (inactive) | – | > 100 µM (inactive) | > 100 µM (inactive) | > 100 µM (inactive) | > 100 µM (inactive) | > 100 µM (inactive) | > 100 µM (inactive) | – | > 100 µM (inactive) | > 100 µM (inactive) | > 100 µM (inactive) | > 100 µM (inactive) | – | > 100 µM (inactive) | > 100 µM (inactive)
Cc1nc2ccccc2c(=O)n1NC(=O)c1ccc(CS)cc1 | 15.2 µM (inactive) | > 10 µM (inactive) | 16.7 µM (inactive) | 3.94 µM (inactive) | 38.2 µM (inactive) | 14.9 µM (inactive) | 10.8 µM (inactive) | 6 µM (inactive) | 13.7 µM (inactive) | – | 4.76 µM (inactive) | 27.9 µM (inactive) | 11.9 µM (inactive) | > 10 µM (inactive) | 17.8 µM (inactive) | 15.6 µM (inactive) | 1.02 µM (active) | 6.21 µM (inactive) | 28.6 µM (inactive) | 12.7 µM (inactive)
C=CCN(c1cc(OC)c2[nH]cc(C)c2c1[N+](=O)[O-])S(C)(=O)=O | > 100 µM (inactive) | > 100 µM (inactive) | > 100 µM (inactive) | > 100 µM (inactive) | > 100 µM (inactive) | > 100 µM (inactive) | – | > 100 µM (inactive) | > 100 µM (inactive) | > 100 µM (inactive) | > 100 µM (inactive) | > 100 µM (inactive) | > 100 µM (inactive) | > 100 µM (inactive) | > 100 µM (inactive) | > 100 µM (inactive) | > 100 µM (inactive) | > 100 µM (inactive) | > 100 µM (inactive) | > 100 µM (inactive)
S=C1N(/N=C/c2c3ccccc3cc3ccccc23)C(=N\c2ccccc2)/C(=N/c2ccccc2)N1c1ccccc1 | > 100 µM (inactive) | > 100 µM (inactive) | > 100 µM (inactive) | > 100 µM (inactive) | > 100 µM (inactive) | – | > 100 µM (inactive) | > 100 µM (inactive) | > 100 µM (inactive) | > 100 µM (inactive) | > 100 µM (inactive) | > 100 µM (inactive) | > 100 µM (inactive) | > 100 µM (inactive) | > 100 µM (inactive) | > 100 µM (inactive) | > 100 µM (inactive) | > 100 µM (inactive) | > 100 µM (inactive) | > 100 µM (inactive)

— ChEMBL document CHEMBL1201862, “PubChem BioAssay data set” (2004)
